# Experimental data: paper PMC3948622, “Docking, Synthesis and Antiproliferative Activity of N-Acylhydrazone Derivatives Designed as Combretastatin A4 Analogues” (PLoS ONE, 2014)
# How the values were obtained:
# [1] = Aqueous solubility assay by ultraviolet spectroscopy; assay type: physicochemical; conditions: water (saturated aqueous solution), thermodynamic from solid, 2 hours at 37°C, read-out: Aq. Solubility
# Protocol: Ultraviolet spectroscopy was performed using Femto spectrophotometer. The wavelength used in solubility assay was determined by the -λ max characteristic of each compound. Spectra were analyzed in Femtoscan software. Mass spectrometry was obtained by positive ionization at Bruker AmaZon SL and data analyzed in Compass 1.3.SR2 software.
# The solubility assay was performed considering the absorptivity of compounds in ultraviolet spectroscopy as described by Schneider and coworkers. The assay wavelength was determined by the λ max characteristic of each compound.
# Saturated aqueous solutions were prepared (0.01 mg/mL) and were kept under stirring for 2 hours at 37°C. The supernatant was filtered in 0,45 µm filters and transferred to a quartz cuvette (10 mm) to spectra acquisition.
# Solubility was determined by linear regression using as graph plots, solutions prepared by dilutions of the original solution in methanol. The data were obtained in triplicates and the mean values were used to the graph plots. The correlation coefficient (R^2) values were between 0.9972 and 0.9999.
# [2] = system: HCT-8 (adenocarcinoma ileocecal); assay: In vitro antiproliferative MTT assay, HCT-8; assay type: cell-based
# Protocol: (§1) The antiproliferative activity of compounds 5a–r was determined based on an MTT assay and using CA-4 as standard against the tumor cell lines: HL-60 (human leukemia), SF-295 (human glioblastoma), MDA-MB435 (melanoma), PC3M (prostate cancer), OVCAR-8 (ovaries adenocarcinoma), NCI-H258M (pulmonary bronchio-alveolar carcinoma) and HCT-8 (adenocarcinoma ileocecal) (Table 2). To determine the selectivity index of compounds 5a–r, their antiproliferative profile was also evaluated toward human lymphocytes (Table 2).
# (§2) Compounds (0.009–5 µg/mL) were tested for cytotoxic activity against selected cancer cell lines: SF-295 (glioblastoma), HCT-8 (colon), MDAMB-435 (melanoma), HL60 (leukemia), PC3M (prostate cancer), OVCAR-8 (ovaries adenocarcinoma) and NCI-H258M (pulmonary bronchio-alveolar carcinoma). All cell lines were kindly obtained from the National Cancer Institute (Bethesda, MD, USA).Tumor cell proliferation was quantified through the ability of living cells to reduce the yellow dye 3-(4,5-dimethyl-2-thiazolyl)-2,5-diphenyl-2H-tetrazolium bromide (MTT, Sigma Aldrich)) to a purple formazan product and absorbance was measured at 595 nm (DTX-880, Beckman Coulter).
# [3] = system: OVCAR-8 (ovaries adenocarcinoma); assay: In vitro antiproliferative MTT assay, OVCAR-8; assay type: cell-based
# Protocol: as §1, §2
# [4] = system: human lymphocytes; assay: In vitro antiproliferative assay, human lymphocytes; assay type: cell-based; conditions: Lymphocyte, Table 2
# Protocol: as §1
# To investigate the selective cytotoxic activity of the N-acylhydrazones derivatives (5a–r), their antiproliferative potency was also assessed toward human lymphocytes and the results were compared to the data from CA-4 ([…]). The selectivity index (SI), which was the IC50 for human lymphocytes/IC50 for cancer cell lines after treatment with CA-4 and N-acylhydrazones (5a–r), was calculated, as depicted in Table 3. […] The best comparative selectivity indices (CA-4 vs 5b) were obtained from the SF-295 (SI = 13), MDA-MB435 (SI = 42) and NCI-H258M (SI = 9.5) tumor cell lines, and the worst results were found for OVCAR-8 (SI = 0.5).
# [5] = system: HCT-116 (colon carcinoma); assay: Hollow Fiber Assay (HFA), HCT-116 fibers s.c. in mice; assay type: in vivo, BALB/c nude mice; conditions: 4 days; for Proliferation (OD595 nm) HCT-116: mean ± S.E.M.
# Protocol: Cell culture of SF-295 (glioblastoma) and HCT-116 (colon carcinoma) was performed in RPMI 1640 medium supplemented with 10% fetal bovine serum, 2 mM glutamine, at 37°C with 5% CO2.
# Polyvinylidene fluoride (PVDF) HFs with a 1-mm internal diameter and a molecular weight cutoff point of 500 kDa were used (Spectrum Laboratories, Houston, TX). The fibers were cut into pieces 12–15 cm long, washed 2× with sterile distilled water and kept in sterile conditions.
# Before use, under sterile conditions, the fibers were incubated in complete RPMI with 20% fetal bovine serum (FBS) overnight (packaging time). Cell viability was assessed by trypan blue exclusion assay. Then, a cell suspension of 7.0×10^6 cell/mL at 4°C was injected into the fiber, with the ends thereof immediately heat-sealed. The fibers were cut into 2 cm each, transferred to petri plates and incubated in complete RPMI medium for 24 h prior to implantation in mice. Each cell was injected into one fiber of a different color (HCT-116, yellow fibers; SF-295, blue fibers).
# Each animal received 2 fibers at s.c. site. All incisions were sealed with a surgical stapler.
# Tumor cell proliferation was quantified through the ability of living cells to reduce the yellow dye 3-(4,5-dimethyl-2-thiazolyl)-2,5-diphenyl-2H-tetrazolium bromide (MTT, Sigma Aldrich) to a purple formazan product. For this purpose, the fibers removed from animals were incubated with MTT 1 mg/mL in 6-well plates during 4 h at 37°C, 5% CO2 and 95% humidity. The MTT solution was aspirated; fibers were washed with saline solution containing protamine sulphate 2.5% and incubated in protamine solution overnight at 4°C. Fibers were transferred to 24 well plates, cut into 2 or 3 pieces and put to dry. The formazan was dissolved in […] of DMSO, aliquots (150 uL) were transferred to 96 well plates and absorbance was measured at 595 nm (DTX-880, Beckman Coulter).
# [6] = system: tumor cell lines; assay: In vitro antiproliferative MTT assay, tumor cell lines (summary over the panel); assay type: cell-based; conditions: summary in text over the cell lines of Table 2; read-out: IC50 (antiproliferative potency over the tumor cell lines)
# Protocol: as §1, §2
# [7] = IC50 for human lymphocytes/IC50 for cancer cell line
smiles,measurement,setting,value
"COc1cc(C(=O)N/N=C/c2ccccc2)cc(OC)c1OC [Compound 5b, (E)-N′benzylidene-3,4,5-trimetoxybenzohydrazide]",solubility at 2 h,[1],39.5 µg/mL
same,IC50,"[2]; Homo sapiens, HCT-8, Table 2, MTT",450 nM
same,SI Lymphocyte/ HCT-8,[2]; [7],2.86±0.13
same,IC50,"[3]; Homo sapiens, OVCAR-8, Table 2, MTT",290 nM
same,SI Lymphocyte/ OVCAR-8,[3]; [7],4.39±0.21
same,comparative selectivity index (CA-4 vs 5b) OVCAR-8,[3]; SI of 5b relative to SI of CA-4,0.5
same,IC50,[4],1340 nM
same,Inhibition (%) HCT-116,[5]; 25 mg/kg/day intraperitoneally,82.89%
same,Proliferation (OD595 nm) HCT-116,[5]; 25 mg/kg/day intraperitoneally,0.26±0.04 OD595 nm
same,Inhibition (%) HCT-116,[5]; 50 mg/kg/day intraperitoneally,80.76%
same,Proliferation (OD595 nm) HCT-116,[5]; 50 mg/kg/day intraperitoneally,0.29±0.05 OD595 nm
same,IC50,[6],64 to 800 nM
